Measurements as given in patent US8758816B2, “Compositions comprising azelastine and methods of use thereof” (priority 2004, dated 2014).

Tested on: patients with seasonal allergic rhinitis (SAR)
Test: MP 428 study: individual symptom severity scores (runny nose, itchy nose, sneezing, congestion; 0-3 scale)
Type: in vivo, human
Conditions: Intent-to-Treat Population
Protocol: A two-week, randomized, double-blind study, which evaluated the effects of the co-administration of ASTELIN® (azelastine hydrochloride (HCl)) and FLONASE® (fluticasone propionate) compared to either product alone in patients with seasonal allergic rhinitis (SAR) was conducted during the 2006 Texas mountain cedar season. After a 5-day placebo lead-in period, 151 patients with moderate-to-severe allergic rhinitis symptoms were randomized to either: (1) (49 total patients) ASTELIN® (azelastine hydrochloride (HCl)) plus placebo saline nasal spray 2 sprays per nostril, 15 minutes apart, twice daily (AM & PM); (2) (50 total patients) FLONASE® (fluticasone propionate) plus placebo saline nasal spray, 2 sprays per nostril, 15 minutes apart, once daily (AM) and two sessions of placebo saline nasal spray, 2 sprays per nostril, 15 minutes apart (PM); or (3) (52 total patients) the co-administration of ASTELIN® (azelastine hydrochloride (HCl)) 2 sprays per nostril plus FLONASE® (fluticasone propionate) 2 sprays per nostril (AM), 15 minutes apart, and ASTELIN® (azelastine hydrochloride (HCl)) 2 sprays per nostril plus placebo saline nasal spray, 15 minutes apart, (PM) for a 2-week double-blind treatment period.
The primary efficacy variable was the change from baseline in the Total Nasal Symptom Score (TNSS), which comprised sneezing, itchy nose, runny nose, and nasal congestion (individual symptoms scores were assigned a value between 0 and 3, where 0=no symptoms and 3=severe symptoms). This study was not statistically designed to assess the differences between ASTELIN® and FLONASE®.
The results of the clinical trial are summarized and presented in Appendix A hereinbelow and in FIGS. 1-6. […] FIGS. 2-5 show the mean improvement in severity score (0-3 scale) from baseline for the symptoms of runny nose, itchy nose, sneezing and congestion, respectively.

CCC(=O)O[C@]1(C(=O)SCF)[C@H](C)C[C@H]2[C@@H]3C[C@H](F)C4=CC(=O)C=C[C@]4(C)[C@@]3(F)[C@@H](O)C[C@@]21C [Fluticasone, fluticasone propionate]
Percent Change from Baseline in AM and PM Combined Nasal Symptom Score: Congestion, LS Mean (Day 5): −18.74%
Percent Change from Baseline in AM and PM Combined Nasal Symptom Score: Congestion, Mean (Day 5): −19.38%
Percent Change from Baseline in AM and PM Combined Nasal Symptom Score: Congestion, Median (Day 5): −14.29%
Percent Change from Baseline in AM and PM Combined Nasal Symptom Score: Itchy Nose, LS Mean (Day 5): −25.02%
Percent Change from Baseline in AM and PM Combined Nasal Symptom Score: Itchy Nose, Mean (Day 5): −24.64%
Percent Change from Baseline in AM and PM Combined Nasal Symptom Score: Itchy Nose, Median (Day 5): −25.00%
Percent Change from Baseline in AM and PM Combined Nasal Symptom Score: Runny Nose, LS Mean (Day 5): −22.06%
Percent Change from Baseline in AM and PM Combined Nasal Symptom Score: Runny Nose, Mean (Day 5): −22.31%
Percent Change from Baseline in AM and PM Combined Nasal Symptom Score: Runny Nose, Median (Day 5): −21.31%
Percent Change from Baseline in AM and PM Combined Nasal Symptom Score: Sneezing, LS Mean (Day 5): −35.40%
Percent Change from Baseline in AM and PM Combined Nasal Symptom Score: Sneezing, Mean (Day 5): −34.14%
Percent Change from Baseline in AM and PM Combined Nasal Symptom Score: Sneezing, Median (Day 5): −33.33%
Change from Baseline in AM and PM Combined Nasal Symptom Score: Congestion, LS Mean (Day 6): −1.03
Change from Baseline in AM and PM Combined Nasal Symptom Score: Congestion, Mean (Day 6): −1.10
Change from Baseline in AM and PM Combined Nasal Symptom Score: Congestion, Median (Day 6): −0.83
Change from Baseline in AM and PM Combined Nasal Symptom Score: Itchy Nose, LS Mean (Day 6): −1.21
Change from Baseline in AM and PM Combined Nasal Symptom Score: Itchy Nose, Mean (Day 6): −1.21
Change from Baseline in AM and PM Combined Nasal Symptom Score: Itchy Nose, Median (Day 6): −1.00
Change from Baseline in AM and PM Combined Nasal Symptom Score: Runny Nose, LS Mean (Day 6): −1.35
Change from Baseline in AM and PM Combined Nasal Symptom Score: Runny Nose, Mean (Day 6): −1.35
Change from Baseline in AM and PM Combined Nasal Symptom Score: Runny Nose, Median (Day 6): −1.00
Change from Baseline in AM and PM Combined Nasal Symptom Score: Sneezing, LS Mean (Day 6): −1.51
Change from Baseline in AM and PM Combined Nasal Symptom Score: Sneezing, Mean (Day 6): −1.44
Change from Baseline in AM and PM Combined Nasal Symptom Score: Sneezing, Median (Day 6): −1.27
Percent Change from Baseline in AM and PM Combined Nasal Symptom Score: Congestion, LS Mean (Day 6): −19.32%
Percent Change from Baseline in AM and PM Combined Nasal Symptom Score: Congestion, Mean (Day 6): −20.16%
Percent Change from Baseline in AM and PM Combined Nasal Symptom Score: Congestion, Median (Day 6): −14.29%
Percent Change from Baseline in AM and PM Combined Nasal Symptom Score: Itchy Nose, LS Mean (Day 6): −27.12%
Percent Change from Baseline in AM and PM Combined Nasal Symptom Score: Itchy Nose, Mean (Day 6): −26.87%
Percent Change from Baseline in AM and PM Combined Nasal Symptom Score: Itchy Nose, Median (Day 6): −24.76%
Percent Change from Baseline in AM and PM Combined Nasal Symptom Score: Runny Nose, LS Mean (Day 6): −22.60%
Percent Change from Baseline in AM and PM Combined Nasal Symptom Score: Runny Nose, Mean (Day 6): −22.47%
Percent Change from Baseline in AM and PM Combined Nasal Symptom Score: Runny Nose, Median (Day 6): −18.64%
Percent Change from Baseline in AM and PM Combined Nasal Symptom Score: Sneezing, LS Mean (Day 6): −32.10%
Percent Change from Baseline in AM and PM Combined Nasal Symptom Score: Sneezing, Mean (Day 6): −31.22%
Percent Change from Baseline in AM and PM Combined Nasal Symptom Score: Sneezing, Median (Day 6): −32.77%
Change from Baseline in AM and PM Combined Nasal Symptom Score: Congestion, LS Mean (Day 7): −1.03
Change from Baseline in AM and PM Combined Nasal Symptom Score: Congestion, Mean (Day 7): −1.10
Change from Baseline in AM and PM Combined Nasal Symptom Score: Congestion, Median (Day 7): −1.08
Change from Baseline in AM and PM Combined Nasal Symptom Score: Itchy Nose, LS Mean (Day 7): −1.30
Change from Baseline in AM and PM Combined Nasal Symptom Score: Itchy Nose, Mean (Day 7): −1.27
Change from Baseline in AM and PM Combined Nasal Symptom Score: Itchy Nose, Median (Day 7): −1.00
Change from Baseline in AM and PM Combined Nasal Symptom Score: Runny Nose, LS Mean (Day 7): −1.28
Change from Baseline in AM and PM Combined Nasal Symptom Score: Runny Nose, Mean (Day 7): −1.31
Change from Baseline in AM and PM Combined Nasal Symptom Score: Runny Nose, Median (Day 7): −1.45
Change from Baseline in AM and PM Combined Nasal Symptom Score: Sneezing, LS Mean (Day 7): −1.44
Change from Baseline in AM and PM Combined Nasal Symptom Score: Sneezing, Mean (Day 7): −1.33
Change from Baseline in AM and PM Combined Nasal Symptom Score: Sneezing, Median (Day 7): −1.20
Percent Change from Baseline in AM and PM Combined Nasal Symptom Score: Congestion, LS Mean (Day 7): −19.42%
Percent Change from Baseline in AM and PM Combined Nasal Symptom Score: Congestion, Mean (Day 7): −20.17%
Percent Change from Baseline in AM and PM Combined Nasal Symptom Score: Congestion, Median (Day 7): −21.31%
Percent Change from Baseline in AM and PM Combined Nasal Symptom Score: Itchy Nose, LS Mean (Day 7): −27.79%
Percent Change from Baseline in AM and PM Combined Nasal Symptom Score: Itchy Nose, Mean (Day 7): −26.92%
Percent Change from Baseline in AM and PM Combined Nasal Symptom Score: Itchy Nose, Median (Day 7): −23.55%
Percent Change from Baseline in AM and PM Combined Nasal Symptom Score: Runny Nose, LS Mean (Day 7): −18.01%
Percent Change from Baseline in AM and PM Combined Nasal Symptom Score: Runny Nose, Mean (Day 7): −18.63%
Percent Change from Baseline in AM and PM Combined Nasal Symptom Score: Runny Nose, Median (Day 7): −28.99%
Percent Change from Baseline in AM and PM Combined Nasal Symptom Score: Sneezing, LS Mean (Day 7): −31.86%
Percent Change from Baseline in AM and PM Combined Nasal Symptom Score: Sneezing, Mean (Day 7): −30.14%
Percent Change from Baseline in AM and PM Combined Nasal Symptom Score: Sneezing, Median (Day 7): −31.32%
Change from Baseline in AM and PM Combined Nasal Symptom Score: Congestion, LS Mean (Day 8): −0.94
Change from Baseline in AM and PM Combined Nasal Symptom Score: Congestion, Mean (Day 8): −0.98
Change from Baseline in AM and PM Combined Nasal Symptom Score: Congestion, Median (Day 8): −0.83
Change from Baseline in AM and PM Combined Nasal Symptom Score: Itchy Nose, LS Mean (Day 8): −1.33
Change from Baseline in AM and PM Combined Nasal Symptom Score: Itchy Nose, Mean (Day 8): −1.29
Change from Baseline in AM and PM Combined Nasal Symptom Score: Itchy Nose, Median (Day 8): −1.15
Change from Baseline in AM and PM Combined Nasal Symptom Score: Runny Nose, LS Mean (Day 8): −0.95
Change from Baseline in AM and PM Combined Nasal Symptom Score: Runny Nose, Mean (Day 8): −0.98
Change from Baseline in AM and PM Combined Nasal Symptom Score: Runny Nose, Median (Day 8): −0.73
Change from Baseline in AM and PM Combined Nasal Symptom Score: Sneezing, LS Mean (Day 8): −1.41
Change from Baseline in AM and PM Combined Nasal Symptom Score: Sneezing, Mean (Day 8): −1.29
Change from Baseline in AM and PM Combined Nasal Symptom Score: Sneezing, Median (Day 8): −1.25
Percent Change from Baseline in AM and PM Combined Nasal Symptom Score: Congestion, LS Mean (Day 8): −17.55%
Percent Change from Baseline in AM and PM Combined Nasal Symptom Score: Congestion, Mean (Day 8): −17.88%
Percent Change from Baseline in AM and PM Combined Nasal Symptom Score: Congestion, Median (Day 8): −14.29%
Percent Change from Baseline in AM and PM Combined Nasal Symptom Score: Itchy Nose, LS Mean (Day 8): −28.16%
Percent Change from Baseline in AM and PM Combined Nasal Symptom Score: Itchy Nose, Mean (Day 8): −27.33%
Percent Change from Baseline in AM and PM Combined Nasal Symptom Score: Itchy Nose, Median (Day 8): −30.22%
Percent Change from Baseline in AM and PM Combined Nasal Symptom Score: Runny Nose, LS Mean (Day 8): −11.82%
Percent Change from Baseline in AM and PM Combined Nasal Symptom Score: Runny Nose, Mean (Day 8): −12.38%
Percent Change from Baseline in AM and PM Combined Nasal Symptom Score: Runny Nose, Median (Day 8): −14.29%
Percent Change from Baseline in AM and PM Combined Nasal Symptom Score: Sneezing, LS Mean (Day 8): −28.16%
Percent Change from Baseline in AM and PM Combined Nasal Symptom Score: Sneezing, Mean (Day 8): −26.04%
Percent Change from Baseline in AM and PM Combined Nasal Symptom Score: Sneezing, Median (Day 8): −31.03%
